Consider two compounds from paper PMC7911614, “Development and Characterization of a Tacrolimus/Hydroxypropyl-β-Cyclodextrin Eye Drop” (Pharmaceutics, 2021).

On the set-up of data set [1]: method as in PMID 32599134, PMID 24015381. As to conditions: cited from earlier work.
The subject of data set [2] is T cell proliferation. More on the design: method as in PMID 22511024. As to conditions: cited from earlier work.
Data set [3] is described as follows: NMR saturation transfer difference (STD) study of tacrolimus/HPβCD binding. As to conditions: D2O, read-out: Kd of tacrolimus/HPβCD binding equilibrium. On the procedure: NMR experiments were conducted at two different temperature conditions, 278 and 298 K, on a Bruker NEO 17.6 T spectrometer (proton resonance 750 MHz) (Billerica, MA, USA), equipped with a ^1H/^13C/^15N triple resonance PA-TXI probe with a deuterium lock channel and a shielded Pulse Field Gradient (PFG) z-gradient. The spectrometer control software was TopSpin 4.0 (Billerica, MA, USA, 2020). The reported chemical shifts are referenced to the lock deuterium solvent. Spectra were processed and analyzed using Mestrenova v14.0 software (Mestrelab Research S.L., Santiago de Compostela, Spain, 2019).
One-dimensional saturation transfer difference ^1H spectra (STD) were measured. The experiment consisted of a selective saturation pulse train, a WET selective solvent suppression module and a 90-degree hard-pulse followed by fid (free induction decay) acquisition. The selective saturation consisted of a train of soft Gaussian-shaped pulses of 50-ms duration with a 1-ms interpulse delay. The selective saturation was applied during 2 s at a specific frequency of the ^1H spectrum, covering a region of the spectrum of ± 125 Hz around the chosen frequency (i.e., ± 0.17 ppm in a 750 spectrometer). The STD^off saturation was applied at 20 ppm. […] The STD^on and STD^off scans were measured in alternate scans and subtracted by the phase cycling, providing the subtracted STD^off-on spectra. […]

Data set [4] is described as follows: physchem. Format: physicochemical. Here is the method: A phase solubility diagram was used to estimate the stability constant (K) of the tacrolimus/HPβCD inclusion complex. The solubility measurements were carried out following the previous work of our research group, described by Anguiano-Igea et al.. This protocol was adjusted to the Higuchi and Connors phase solubility model. A solubility study was carried out by adding an excess amount of the tacrolimus powder to MilliQ® aqueous solutions containing increasing concentrations of HPβCD (from 0 to 400 mg/mL). The vials containing these suspensions were then shaken in a VWR incubated mini-shaker (VWR International, Radnor, PA, USA) at 25 °C and 250 rpm for 7 days until reaching an equilibrium. […]
Tacrolimus concentration was determined for each sample using an HPLC system (Agilent 1260 series; Agilent Technologies®, Santa Clara, CA, USA) equipped with a Diode Array Detector HS, a solvent delivery quaternary pump system, 400 bar maximum pressure and an autosampler. […] A 210-nm wavelength was employed for the tacrolimus quantification. […]
These constants values were calculated using the following Equation (1):S = S0 +(K1:1·S0 + K1:1·K1:2·S0·[HPβCD])·[HPβCD],(1) where S is the total solubility, S0 is the free drug solubility and K1:1 and K1:2 are the stability constants of the complex tacrolimus/HPβCD. […]

On the set-up of data set [5]: method as in PMID 29751694. As to conditions: cited from earlier work.

In brackets after ≈: the same amount, converted by molar mass. Like-named read-outs stand apart in the source and are kept apart here.

For `C=CC[C@@H]1/C=C(\C)C[C@H](C)C[C@H](OC)[C@H]2O[C@@](O)(C(=O)C(=O)N3CCCC[C@H]3C(=O)O[C@H](/C(C)=C/[C@@H]3CC[C@@H](O)[C@H](OC)C3)[C@H](C)[C@@H](O)CC1=O)[C@H](C)C[C@@H]2OC` [Tacrolimus], in data set [1], the water solubility is 1 to 12 µg/mL. The “immunosuppressive activity, times more potent than cyclosporine A” value in data set [2] is listed as 100 times. Besides, in data set [3] (278 K, inferred from STD response), the Kd is < 1 mM. In data set [3] (298 K, inferred from absence of STD response), the Kd is > 10 mM. In addition, in data set [4], the “K1:2 stability constant of tacrolimus/HPβCD complex” value is 2.1 ± 0.6 M⁻¹ and the concentration in solution (solubility at 7 days) came to 4 ± 0.67 µg/mL (≈ 4.97 µM).

With `CC(O)COC[C@H]1O[C@@H]2O[C@H]3[C@H](O)[C@@H](O)[C@@H](O[C@H]4[C@H](O)[C@@H](O)[C@@H](O[C@H]5[C@H](O)[C@@H](O)[C@@H](O[C@H]6[C@H](O)[C@@H](O)[C@@H](O[C@H]7[C@H](O)[C@@H](O)[C@@H](O[C@H]8[C@H](O)[C@@H](O)[C@@H](O[C@H]1[C@H](O)[C@H]2O)O[C@@H]8COCC(C)O)O[C@@H]7COCC(C)O)O[C@@H]6COCC(C)O)O[C@@H]5COCC(C)O)O[C@@H]4COCC(C)O)O[C@@H]3COCC(C)O` (stereo partly drawn) [HPβCD, 2-hydroxypropyl-β-cyclodextrin], the “surface tension in solution” value in data set [5] is reported as 54.8–57.5 mN/m.

Broadly, the solubility is the concentration that dissolves in the medium under given conditions. The low end stands for little dissolved substance, the high end for much dissolved substance.
